Results from ChEMBL document CHEMBL1909046, “DrugMatrix in vitro pharmacology data”.

Key:
[1] = target: T1, Alpha-1A adrenergic receptor (Rattus norvegicus, UniProt P43140); assay: DRUGMATRIX: Alpha-1A adrenergic receptor radioligand binding (ligand: prazosin); format: cell membranes, Wistar, Submaxillary gland, Membrane; conditions: Not Active = under 50% inhibition at 10 µM
T1 sequence (P43140 whole entry): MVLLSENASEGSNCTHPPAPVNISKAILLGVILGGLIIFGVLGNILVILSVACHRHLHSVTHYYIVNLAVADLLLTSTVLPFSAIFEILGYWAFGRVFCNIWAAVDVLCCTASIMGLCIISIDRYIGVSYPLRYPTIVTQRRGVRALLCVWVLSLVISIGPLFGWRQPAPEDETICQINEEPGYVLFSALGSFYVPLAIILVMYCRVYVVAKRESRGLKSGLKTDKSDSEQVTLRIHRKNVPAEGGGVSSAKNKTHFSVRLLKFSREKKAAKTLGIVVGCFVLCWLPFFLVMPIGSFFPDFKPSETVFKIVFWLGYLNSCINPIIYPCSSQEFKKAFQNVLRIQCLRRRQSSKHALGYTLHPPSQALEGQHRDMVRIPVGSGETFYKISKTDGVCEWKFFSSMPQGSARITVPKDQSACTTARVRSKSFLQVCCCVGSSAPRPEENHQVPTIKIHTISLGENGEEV

Substance-K receptor = target: T2, Substance-K receptor (Homo sapiens, UniProt P21452); format: cell membranes, CHO, Membrane; conditions: cho; note: in other assays of this panel Not Active means under 50% inhibition at 10 µM
T2 sequence (P21452 whole entry): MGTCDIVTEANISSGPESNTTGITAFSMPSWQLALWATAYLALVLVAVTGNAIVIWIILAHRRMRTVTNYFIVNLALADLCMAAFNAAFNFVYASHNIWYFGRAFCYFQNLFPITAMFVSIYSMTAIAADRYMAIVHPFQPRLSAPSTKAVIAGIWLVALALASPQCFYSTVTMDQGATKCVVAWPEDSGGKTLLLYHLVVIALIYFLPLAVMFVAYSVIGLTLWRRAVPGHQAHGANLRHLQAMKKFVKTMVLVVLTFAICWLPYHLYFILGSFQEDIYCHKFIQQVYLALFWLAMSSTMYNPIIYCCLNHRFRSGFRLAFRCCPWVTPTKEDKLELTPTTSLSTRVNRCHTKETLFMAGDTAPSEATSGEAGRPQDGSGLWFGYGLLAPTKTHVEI

[2] = DRUGMATRIX: Interleukin IL-1 radioligand binding (ligand: [125I] interleukin 1beta); format: cell membranes, Membrane; conditions: nih3t3; Not Active = under 50% inhibition at 10 µM
[3] = DRUGMATRIX: Platelet-Derived Growth Factor (PDGF) radioligand binding (ligand: [125I] PDGF); format: cell-based; conditions: nih3t3; Not Active = under 50% inhibition at 10 µM
Cathepsin G = target: T3, Cathepsin G (Homo sapiens, UniProt P08311); format: tissue-based; conditions: neutrophil;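 note: inhibition of Cathepsin G enzyme activity, tested on an AMC-conjugated peptide substrate; in other assays of this panel Not Active means under 50% inhibition at 10 µM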
T3 sequence (P08311 whole entry): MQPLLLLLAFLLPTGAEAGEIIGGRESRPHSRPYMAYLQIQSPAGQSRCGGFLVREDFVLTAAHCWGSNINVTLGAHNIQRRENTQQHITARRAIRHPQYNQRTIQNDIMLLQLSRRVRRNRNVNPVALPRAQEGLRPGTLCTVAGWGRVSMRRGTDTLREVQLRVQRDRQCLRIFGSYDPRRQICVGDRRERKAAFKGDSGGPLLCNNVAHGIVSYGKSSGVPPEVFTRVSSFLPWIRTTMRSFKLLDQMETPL

[4] = target: Tyrosine-protein kinase Lck (Homo sapiens, UniProt P06239); assay: DRUGMATRIX: Protein Tyrosine Kinase, LCK enzyme inhibition (substrate: Poly(Glu:Tyr)); format: cell-based, Insect cells; conditions: insect cells; Not Active = under 50% inhibition at 10 µM
Sequence of Tyrosine-protein kinase Lck (P06239 whole entry): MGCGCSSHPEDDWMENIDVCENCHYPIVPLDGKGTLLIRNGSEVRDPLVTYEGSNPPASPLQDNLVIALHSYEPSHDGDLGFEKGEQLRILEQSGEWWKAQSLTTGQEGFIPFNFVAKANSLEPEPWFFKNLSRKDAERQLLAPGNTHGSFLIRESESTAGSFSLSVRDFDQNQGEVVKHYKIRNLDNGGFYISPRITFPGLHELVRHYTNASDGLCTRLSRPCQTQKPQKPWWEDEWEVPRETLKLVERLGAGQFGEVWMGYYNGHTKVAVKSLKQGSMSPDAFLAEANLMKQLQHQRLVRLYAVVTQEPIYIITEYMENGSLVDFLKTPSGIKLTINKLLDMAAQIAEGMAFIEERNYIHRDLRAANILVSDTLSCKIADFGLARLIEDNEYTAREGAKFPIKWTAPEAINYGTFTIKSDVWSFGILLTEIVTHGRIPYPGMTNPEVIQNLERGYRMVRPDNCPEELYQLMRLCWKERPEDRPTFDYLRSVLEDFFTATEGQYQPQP

Estrogen receptor beta = Estrogen receptor beta (Homo sapiens, UniProt Q92731); conditions: sf9; note: in other assays of this panel Not Active means under 50% inhibition at 10 µM
Sequence of Estrogen receptor beta (Q92731 whole entry): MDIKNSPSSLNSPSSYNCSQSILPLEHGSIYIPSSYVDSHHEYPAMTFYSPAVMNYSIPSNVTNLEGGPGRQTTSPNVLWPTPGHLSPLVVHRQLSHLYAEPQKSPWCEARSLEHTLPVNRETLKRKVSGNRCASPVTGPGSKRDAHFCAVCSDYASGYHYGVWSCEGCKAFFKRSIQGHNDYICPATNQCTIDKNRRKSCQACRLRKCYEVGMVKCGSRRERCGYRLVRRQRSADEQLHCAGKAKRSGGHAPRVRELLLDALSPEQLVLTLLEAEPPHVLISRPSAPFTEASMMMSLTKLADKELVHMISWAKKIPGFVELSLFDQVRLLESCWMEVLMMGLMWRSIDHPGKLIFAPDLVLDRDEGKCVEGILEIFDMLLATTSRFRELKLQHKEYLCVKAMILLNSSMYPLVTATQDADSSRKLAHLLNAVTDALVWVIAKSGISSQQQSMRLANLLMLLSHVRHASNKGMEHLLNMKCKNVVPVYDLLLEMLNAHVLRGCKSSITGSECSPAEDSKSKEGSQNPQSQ

| SMILES | IC50 [1] | IC50 (Substance-K receptor) | IC50 [2] | Ki [2] | IC50 [3] | Ki [3] | IC50 (Cathepsin G) | IC50 [4] | IC50 (Estrogen receptor beta) | IC50 ([1]; read-out: IC50) [nM] | Ki ([1]; read-out: Ki) [nM] |
| --- | --- | --- | --- | --- | --- | --- | --- | --- | --- | --- | --- |
| Nn1nnc2ccccc21 | Not Active | Not Active | Not Active | Not Active | Not Active | Not Active | Not Active | Not Active | Not Active |  |  |
| CC[C@]1(O)CC[C@H]2[C@@H]3CCC4=CCCC[C@@H]4[C@H]3CC[C@@]21C | Not Active | Not Active | Not Active | Not Active | Not Active | Not Active | Not Active | Not Active | Not Active |  |  |
| N[C@@H](Cc1ccc(F)cc1)C(=O)O | Not Active | Not Active | Not Active | Not Active | Not Active | Not Active | Not Active | Not Active | Not Active |  |  |
| CCOC(=O)[C@H](CCc1ccccc1)N[C@@H](C)C(=O)N1Cc2ccccc2C[C@H]1C(=O)O | Not Active | Not Active | Not Active | Not Active | Not Active | Not Active | Not Active | Not Active | Not Active |  |  |
| O=C(c1ccccc1Cl)N1CCC(Cc2ccccc2)CC1 | Not Active | Not Active | Not Active | Not Active | Not Active | Not Active | Not Active | Not Active | Not Active |  |  |
| CCOC(=O)[C@H](CCc1ccccc1)N[C@@H](C)C(=O)N1CCC[C@H]1C(=O)O | Not Active | Not Active | Not Active | Not Active | Not Active | Not Active | Not Active | Not Active |  |  |  |
| Clc1cc2c(cc1Cl)Oc1cc(Cl)c(Cl)cc1O2 [2,3,7,8-TETRACHLORODIBENZO-P-DIOXIN] | Not Active | Not Active | Not Active | Not Active | Not Active | Not Active | Not Active | Not Active | Not Active |  |  |
| C=C1/C(=C\C=C2/CCC[C@]3(C)[C@@H]([C@H](C)CCCC(C)C)CC[C@@H]23)C[C@@H](O)C[C@@H]1O [ALFACALCIDOL] | Not Active | Not Active | Not Active | Not Active | Not Active | Not Active | Not Active | Not Active | Not Active |  |  |
| CCCCCC[C@H]1C(=O)O[C@H](C)[C@H](NC(=O)c2cccc(NC=O)c2O)C(=O)O[C@@H](C)[C@@H]1OC(=O)CC(C)C [ANTIMYCIN A] | Not Active | Not Active | Not Active | Not Active | Not Active | Not Active | Not Active | Not Active | Not Active |  |  |
| C[C@@H]1CC[C@H]2[C@@H](C)C(=O)O[C@@H]3O[C@@]4(C)CC[C@@H]1[C@]32OO4 [ARTEMISININ] | Not Active | Not Active | Not Active | Not Active | Not Active | Not Active | Not Active | Not Active | Not Active |  |  |
| [N-]=[N+]=CC(=O)OC[C@H](N)C(=O)O [AZASERINE] | Not Active | Not Active | Not Active | Not Active | Not Active | Not Active | Not Active | Not Active |  |  |  |
| CC(C)C[C@H]1C(=O)N2CCC[C@H]2[C@]2(O)O[C@](NC(=O)[C@@H]3C=C4c5cccc6[nH]c(Br)c(c56)C[C@H]4N(C)C3)(C(C)C)C(=O)N12 [BROMOCRIPTINE] |  | Not Active | Not Active | Not Active | Not Active | Not Active | Not Active | Not Active |  | 6.96 | 2.82 |
